These results are taken from article PMC3187749, “Discovery of Diverse Small Molecule Chemotypes with Cell-Based PKD1 Inhibitory Activity” (PLoS ONE, 2011).

The target in experiment [1] is T1, recombinant human PKD1 (Homo sapiens, UniProt Q15139).
T1 construct: His; purchased Millipore (Billerica, MA)
T1 sequence (Q15139 1-912): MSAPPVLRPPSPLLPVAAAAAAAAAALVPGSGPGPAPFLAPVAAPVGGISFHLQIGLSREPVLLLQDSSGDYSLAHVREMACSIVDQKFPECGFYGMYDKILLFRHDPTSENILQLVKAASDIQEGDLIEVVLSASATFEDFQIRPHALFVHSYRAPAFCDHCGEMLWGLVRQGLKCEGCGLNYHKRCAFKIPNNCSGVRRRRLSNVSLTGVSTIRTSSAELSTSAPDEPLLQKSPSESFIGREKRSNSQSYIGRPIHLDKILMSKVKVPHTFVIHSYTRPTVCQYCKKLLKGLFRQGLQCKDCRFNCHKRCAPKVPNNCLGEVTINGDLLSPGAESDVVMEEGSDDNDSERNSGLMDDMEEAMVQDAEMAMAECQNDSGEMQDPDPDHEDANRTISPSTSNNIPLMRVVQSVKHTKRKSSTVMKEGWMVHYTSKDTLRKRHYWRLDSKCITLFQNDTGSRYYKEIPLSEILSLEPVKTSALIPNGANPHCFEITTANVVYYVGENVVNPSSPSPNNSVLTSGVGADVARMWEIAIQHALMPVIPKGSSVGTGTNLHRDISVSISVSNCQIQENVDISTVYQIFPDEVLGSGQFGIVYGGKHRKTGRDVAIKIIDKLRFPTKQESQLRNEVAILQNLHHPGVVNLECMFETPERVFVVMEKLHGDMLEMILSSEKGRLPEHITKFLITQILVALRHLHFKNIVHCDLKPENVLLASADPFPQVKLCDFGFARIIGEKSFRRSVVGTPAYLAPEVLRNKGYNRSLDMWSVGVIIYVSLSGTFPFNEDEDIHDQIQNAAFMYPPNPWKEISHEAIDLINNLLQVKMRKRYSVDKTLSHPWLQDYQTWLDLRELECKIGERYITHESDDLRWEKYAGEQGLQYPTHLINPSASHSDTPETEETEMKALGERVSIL
Kind of experiment: In vitro radiometric PKD1 kinase assay. Format: biochemical. How it is done:
Kinase reactions were initiated with the addition of ATP (50 µM ATP, 1.0 µCi γ-^33P-ATP; Perkin Elmer, Boston, MA) and incubated for 20 min at 30°C. Twenty-five µL of the reaction was spotted onto Whatman P81 filter paper (Whatman Inc., Clifton, NJ). Filter papers were then washed three times in 0.5% phosphoric acid, air-dried, and counted using an LS6500 multi-purpose scintillation counter (Beckman Coulter, Fullerton, CA). IC50 determinations were performed using GraphPad Prism software 5.0. Radiometric PKD2 and PKD3 in vitro kinase assays were performed as previously described.

In experiment [2] the target is T2, endogenous PKD1 (Ser916 phosphorylation) in LNCaP prostate cancer cells (Homo sapiens, UniProt Q15139).
T2 construct: phosphorylation of endogenously expressed PKD1 Ser^916; endogenous in cells; host or cells: LNCaP prostate cancer cells
T2 sequence (Q15139 1-912): T1 sequence (Q15139 1-912)
Kind of experiment: Western blot of PMA-induced phospho-Ser916-PKD1 in LNCaP cells. Format: cell-based. Conditions: LNCaP cells; for inhibition at 50 µM: read-out: Inhibition of phosphorylation of Ser916-PKD1; for Concentration dependence of inhibition of PMA-induced endogenous PKD1 activity: Western blot. The method, then:
Briefly, prostate cancer cells (LNCaP) were exposed to test compounds. Cells were lysed in buffer (200 mM Tris-HCl, pH 7.4, 100 µM 4-(2-aminoethyl) benzenesulfonyl fluoride, 1 mM EGTA, and 1% Triton X-100) and cell lysates were subjected to SDS-PAGE then electrotransferred to nitrocellulose membranes. Membranes were blocked with 5% nonfat milk in Tris-buffered saline. Membranes were probed with a primary antibody then followed by a secondary anti-mouse or anti-rabbit secondary antibody conjugated to horseradish peroxidase (1∶1000, Bio-Rad). Bands were visualized by the enhanced chemiluminescence Western blotting detection system (Amersham Biosciences). The primary antibodies included p-S916-PKD1 antibody (Millipore) and GAPDH (Enzo Life Sciences, Plymouth Meeting, PA).
[…] Whole cell lysates were immunoblotted for phosphorylated Ser^916-PKD1 with GAPDH serving as a loading control.
A general note: Immunoblotting shows a protein as a band on a membrane.

The test system of experiment [3] is T3, recombinant human protein kinase D1 (PKD1).
T3 construct: His; purchased Millipore (Billerica, MA)
Briefly: IMAP-based PKD1 FP high throughput screening assay. Format: biochemical. As to conditions: LOPAC screen, 10 µM, duplicate. The method, then:
An HTS IMAP-based PKD1 FP assay was developed and used to screen the PMLSC library to identify primary active compounds as previously described, [19]. In brief, the basis for the in vitro homogeneous IMAP PKD1 FP assay is the interaction of nanoparticles with covalent phosphorylated moieties generated when active PKD1 enzyme phosphorylates small, fluorescently labeled substrate peptides. The PKD1 kinase reactions were assembled stepwise by the addition of 3× substrate/ATP (300 nM/60 µM), compound and PKD1 enzyme (0.18 units/mL). Positive (MAX) and negative (MIN) control kinase reactions contained DMSO (1%) and Gö6976 (1 µM) or H-89 (100 µM) in 1% DMSO (final concentrations), respectively. All assay plates were setup in a standard 384-well configuration as previously described and all reagents were prepared in kinase reaction buffer. Kinase reactions were incubated for 90 min at room temperature and then were stopped with the addition of 18 µL of IMAP binding reagents (1∶400) in 1× binding buffer A (proprietary composition, Molecular Devices). These nanoparticles associate with substrate peptide phospho groups creating a larger phosphosubstrate–nanoparticle complex. The phosphosubstrate–nanoparticle binding can be quantified and is expressed as millipolarization (mP) units. […] Assay plates were centrifuged at 50 g for 1 min, incubated at room temperature for 2 hr and FP data were collected on a Molecular Devices SpectraMax M5 (excitation A485/emission A525). This assay was also used in secondary concentration response studies to initially determine IC50 concentrations of compounds. IC50 determinations were performed using GraphPad Prism software 5.0 (La Jolla, CA).
A PKD1 IMAP FP assay was developed and optimized to identify small molecule inhibitors of PKD1 kinase activity. Using this assay system, we screened the LOPAC and PMLSC compound sets (196,425 total compounds) for novel PKD inhibitory chemotypes. […] For the LOPAC screen each compound was evaluated in duplicate at a single concentration (10 µM). […]

Another experiment deals with AKT. Kind of experiment: IMAP-based AKT counter screen. Format: biochemical. As to conditions: concentrations up to 50 µM. The text has this: (§1) It was also gratifying that, in general, our novel cell active PKD1 inhibitors appeared to be less promiscuous than PKD1 inhibitors having minimal to no cellular PKD1 inhibitory activity (Table 1). For example, CIDs 755673 and 1893668 display additional confirmed activity in six and seven, respectively, PubChem bioassays while CID 2011756 has confirmed activity in only one additional PubChem bioassay. […] In contrast, the remaining chemotypes registered as confirmed actives in 2–43 additional bioassays (Table 1). Additional chemical similarity searching, focusing on our four novel cell-active PKD1 inhibitory chemotypes, using MetaDrug also supports a comparative lack of promiscuity of these compounds.
In general terms: Counterscreens check selectivity or assay interference.

In experiment [4] the target is T1, recombinant human PKD1. Briefly: ATP competition studies (radiometric PKD1 assay, Michaelis-Menten/Lineweaver-Burk). Format: biochemical. As to conditions: PKD1, ATP 12.5–1000 µM. The method, then: For ATP competition studies, recombinant human PKD1 (1 ng/µL) and Syntide-2 substrate peptide (200 ng/µl) in kinase buffer were incubated with a concentration range of test compound. Kinase reactions were initiated with a concentration range of cold ATP (12.5–1000 µM) supplemented with 1.0 µCi γ-^33P-ATP (Perkin Elmer) and processed as described above. Enzyme inhibition was analyzed and visualized using the Michaelis-Menten and Lineweaver-Burk functions of GraphPad Prism 5.0.

The next experiment has as its system CDK7. Briefly: IMAP-based CDK7 counter screen. Format: biochemical. As to conditions: concentrations up to 50 µM.
Text: as §1

In another experiment the test system is PLK1. Kind of experiment: IMAP-based PLK1 counter screen. As to conditions: concentrations up to 50 µM. Format: biochemical.
Text: as §1

For experiment [5], the target named is T1, recombinant human PKD1. As to conditions: cited from earlier work.
The mark [6] stands for this setting: radiometric PKD1 kinase assay, mean ± range or SD of 2–4 independent experiments, read-out: In vitro PKD1 IC50.
Setting [7] is: 50 µM compound 45 min, then PMA 10 nM 20 min.

Like-named read-outs stand apart in the source and are kept apart here. Some results are limits rather than exact numbers.

In the case of `NC(N)=NC(=O)c1nc(Cl)c(N)nc1N` [CID 16230, amiloride chloride, reference compound], the IC50 on recombinant human PKD1 [1] (setting [6]) turned out to be 2100 ± 150 nM. Further, in experiment [2] (setting [7]), the “Inhibition of phosphorylation of Ser916-PKD1 (in words)” value (from here on “Inhibition … (in words)”) is listed as “little or no inhibition” and the inhibition at 50 µM was under 50%.
In the case of `O=S(=O)(NCCNC/C=C/c1ccc(Br)cc1)c1cccc2cnccc12` [H89], the “Inhibition of control signal (primary active)” value (“Inhibition of control signal” for short) in experiment [3] was at least 50%.
Turning to “(6Z)-6-[4-(3-aminopropylamino)-6-methyl-1H-pyrimidin-2-ylidene]cyclohexa-2,4-dien-1-one [CID 5389142]”, the AKT kinase inhibition result with AKT is listed as “no kinase inhibition”. For the same molecule, the “Mechanism of Action (with respect to ATP)” value (shortened to “Mechanism of Action”) at recombinant human PKD1 [4] is on record as “ATP competitive”. Moreover, the CDK7 kinase inhibition entry in the experiment with CDK7 is “no kinase inhibition”. Further, in the experiment with PLK1, the PLK1 kinase inhibition entry is on record as “no kinase inhibition”. The “Inhibition of phosphorylation of Ser916-PKD1” value in experiment [2] (setting [7]) is on record as “greater than 50%”. In experiment [2], the “Concentration dependence of inhibition of PMA-induced endogenous PKD1 activity” value is “concentration-dependent inhibition”.
As to `O=C1NCCCc2c1oc1ccc(O)cc21` [CID 755673], the “Mechanism of Action” value on recombinant human PKD1 [5] (previously determined) was “Non-ATP competitive”. Further, in experiment [2] (setting [7]), the “Inhibition … (in words)” value was “confirmed as a cell active PKD1 inhibitor”. Also, the “Concentration dependence of inhibition of PMA-induced endogenous PKD1 activity” value in experiment [2] is listed as “concentration-dependent inhibition”.
Regarding `CCN1/C(=C/C(C)=O)Sc2ccc(OC)cc21` [CID 1893668, (1Z)-1-(3-ethyl-5-methoxy-1,3-benzothiazol-2-ylidene)propan-2-one, reference compound], the IC50 at recombinant human PKD1 [1] (setting [6]) stood at 1700 ± 300 nM. Further, the inhibition at 50 µM in experiment [2] (setting [7]) was over 50%. Further, the EC50 in experiment [2] (PMA stimulation, n = 3, read-out: Cellular EC50 (phospho-Ser916-PKD1)) amounted to 52000 ± 14000 nM. In addition, the “Concentration dependence of inhibition of PMA-induced endogenous PKD1 activity” value in experiment [2] is given as “concentration-dependent inhibition”.
As for `Clc1cncc(Cl)c1NNc1ccncc1` [CID 4438738], on recombinant human PKD1 [4], the “Mechanism of Action” value is “ATP competitive”. In addition, the IC50 at recombinant human PKD1 [1] (setting [6]) turned out to be 3300 ± 100 nM.
Consider `CCC1=NNc2cccc3c(OC)ccc1c23` [CID 2876479], for which the “Mechanism of Action” value on recombinant human PKD1 [4] is “ATP competitive”. In addition, the IC50 at recombinant human PKD1 [1] (setting [6]) was 2200 ± 1800 nM. In experiment [2] (setting [7]), the “Inhibition … (in words)” value is “some cellular inhibition”.
Regarding `O=C1c2ccccc2-c2onc3ccc(NCCCn4ccnc4)c1c23` [CID 663844], on recombinant human PKD1 [1] (setting [6]), the IC50 is 4800 ± 600 nM. The “Inhibition … (in words)” value in experiment [2] (setting [7]) is given as “little or no inhibition”.
`NC(=O)c1cc(-c2ccnc(NC3CCCCC3)c2)nc(N2CCNCC2)c1` [BKPDi]: at recombinant human PKD1 [5] (known mechanism of action of the PKD inhibitor BKPDi, listed as BPKDi), the “Mechanism of Action” value is listed as “ATP competitive”.
In the case of `CNCCNS(=O)(=O)c1cccc2cnccc12` [H8], the “Inhibition of control signal” value in experiment [3] was at least 50%.
Turning to `CC1(C)Oc2ccc3ccc(=O)oc3c2-c2cn[nH]c21` [CID 646236], the “Mechanism of Action” value at recombinant human PKD1 [4] is “ATP competitive”. Also, the IC50 at recombinant human PKD1 [1] (setting [6]) was 1100 ± 100 nM.
Regarding `CC1CNCCN1S(=O)(=O)c1cccc2cnccc12` (stereo not shown) [H7], in experiment [3], the “Inhibition of control signal” value was at least 50%.
With `Nc1nc2ccc([N+](=O)[O-])c(N)c2s1` [CID 5086667], the entries for the “Mechanism of Action” value on recombinant human PKD1 [4] and at recombinant human PKD1 [4] (listed as 5086667) were “ATP-competitive inhibitor” and “ATP competitive”, respectively. Also, the “Inhibition … (in words)” value in experiment [2] (setting [7]) is “some cellular inhibition”.
In the case of `NC(=O)c1cn([C@@H]2O[C@H](CO)[C@@H](O)[C@H]2O)c2ncnc(N)c12` [CID 9549170, sangivamycin, reference compound], the “Mechanism of Action” value at recombinant human PKD1 [4] is recorded as “ATP competitive”. Moreover, the IC50 at recombinant human PKD1 [1] stood at 400 ± 300 nM.
In the case of `CC1Cc2ccccc2N1c1ncnc(N)c1[N+](=O)[O-]` (stereo not shown) [CID 2958734], the “Mechanism of Action” value at recombinant human PKD1 [4] was “ATP competitive”. Also, at recombinant human PKD1 [1] (setting [6]), the IC50 was 6100 ± 200 nM. Moreover, the “Inhibition … (in words)” value in experiment [2] (setting [7]) was “little or no inhibition”.

As usually defined, the IC50 is the concentration at which inhibition is half-maximal. In general, inhibition refers to the drop in the measured response relative to a control, in per cent. Broadly, the EC50 is the concentration at which the effect is half-maximal.
